Results from patent US11168345B2, “Methods of identifying a polypeptide target for degradation by a modulator of CRBN” (THE BROAD INSTITUTE, INC., priority 2015, dated 2021).

Experiments:
[1] = biological target: T1, Aiolos C2H2 zinc finger 2 (AA146-168) (Homo sapiens, UniProt Q96SW2+Q9UKT9); test: Aiolos zinc finger 2 (amino acids 146-168) GFP fusion degradation, flow cytometry; assay type: cell-based
T1 construct: attaching zinc finger 2 (amino acids 146-168) to GFP via a flexible linker; expressed in transfected cells; host or cells: HEK293T

ZNF692 [2] = settings: for degradation of ZNF692 in protein reporter vector (normalized EGFP:mCherry ratio): HEK293T cells, lentiviral transduction, 1 μM, cereblon and zinc finger-dependent; for degradation of zinc-finger-containing region of ZNF692 fused to GFP: flow cytometry
Source text: (§1) Bars corresponding to treatment groups A-D are consistent amongst all genetic background groups. Bar height is the average of three replicates, error bars represent 95% confidence intervals. […] Light gray (asterisk) amino acids designate positions which are components of the C2H2 zinc finger motif and are found across the C2H2 family of zinc fingers. Medium gray (black bar) amino acids are polymorphic sites in C2H2 zinc fingers.

ZFP91 [3] = settings: for degradation of ZFP91 in protein reporter vector (normalized EGFP:mCherry ratio): HEK293T cells, lentiviral transduction, 1 μM, cereblon and zinc finger-dependent; for degradation of zinc-finger-containing region of ZFP91 fused to GFP: flow cytometry
Source text: as §1

RNF166 [4] = settings: for degradation of RNF166 in protein reporter vector (normalized EGFP:mCherry ratio): HEK293T cells, lentiviral transduction, 1 μM, cereblon and zinc finger-dependent; for degradation of zinc-finger-containing region of RNF166 fused to GFP: flow cytometry
Source text: as §1

ZNF692 [5] = biological target: T2, ZNF692 (Homo sapiens, UniProt Q96SW2+Q9BU19); settings: MM1S (multiple myeloma) and KG1 (Acute Myeloid Leukemia) cell lines; datasets of Kronke et al. 2014, 2015; cited from earlier work
T2 construct: endogenous in cells; host or cells: MM1S, KG1

RNF166 [6] = biological target: T3, RNF166 (Homo sapiens, UniProt Q96A37+Q96SW2); settings: MM1S (multiple myeloma) and KG1 (Acute Myeloid Leukemia) cell lines; datasets of Kronke et al. 2014, 2015; cited from earlier work
T3 construct: endogenous in cells; host or cells: MM1S, KG1

ZFP91 [7] = biological target: T4, ZFP91 (Homo sapiens, UniProt Q96JP5+Q96SW2); settings: MM1S (multiple myeloma) and KG1 (Acute Myeloid Leukemia) cell lines; datasets of Kronke et al. 2014, 2015; cited from earlier work
T4 construct: endogenous in cells; host or cells: MM1S, KG1
T4 sequence (Q96JP5 2-570 limits assumed): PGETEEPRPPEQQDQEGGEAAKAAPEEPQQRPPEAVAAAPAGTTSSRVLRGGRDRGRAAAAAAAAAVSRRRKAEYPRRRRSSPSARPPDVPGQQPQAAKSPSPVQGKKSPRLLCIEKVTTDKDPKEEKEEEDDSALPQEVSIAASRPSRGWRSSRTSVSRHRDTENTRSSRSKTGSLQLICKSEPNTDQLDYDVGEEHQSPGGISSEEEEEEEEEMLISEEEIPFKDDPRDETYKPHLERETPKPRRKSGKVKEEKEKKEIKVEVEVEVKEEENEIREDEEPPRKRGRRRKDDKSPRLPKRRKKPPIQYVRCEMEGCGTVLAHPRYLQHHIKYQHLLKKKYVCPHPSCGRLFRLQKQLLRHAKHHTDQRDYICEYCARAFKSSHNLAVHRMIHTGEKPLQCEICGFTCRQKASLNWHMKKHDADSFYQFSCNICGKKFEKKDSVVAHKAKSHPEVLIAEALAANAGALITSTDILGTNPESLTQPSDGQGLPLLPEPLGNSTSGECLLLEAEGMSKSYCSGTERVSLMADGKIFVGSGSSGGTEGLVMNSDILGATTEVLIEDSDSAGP
T4 sequence (Q96SW2 whole entry): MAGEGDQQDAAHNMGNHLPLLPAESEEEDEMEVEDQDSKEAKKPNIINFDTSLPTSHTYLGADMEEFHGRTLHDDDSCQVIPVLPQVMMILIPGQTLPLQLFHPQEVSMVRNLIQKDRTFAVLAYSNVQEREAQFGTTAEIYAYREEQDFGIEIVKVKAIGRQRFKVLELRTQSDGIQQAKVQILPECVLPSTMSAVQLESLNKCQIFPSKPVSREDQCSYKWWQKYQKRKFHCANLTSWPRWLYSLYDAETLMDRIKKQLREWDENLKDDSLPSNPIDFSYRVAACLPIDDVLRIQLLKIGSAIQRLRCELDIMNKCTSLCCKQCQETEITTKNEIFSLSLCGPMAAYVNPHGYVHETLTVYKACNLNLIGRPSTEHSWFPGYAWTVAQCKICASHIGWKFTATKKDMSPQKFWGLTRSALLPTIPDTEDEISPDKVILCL
T4 sequence (Q16531 whole entry partner): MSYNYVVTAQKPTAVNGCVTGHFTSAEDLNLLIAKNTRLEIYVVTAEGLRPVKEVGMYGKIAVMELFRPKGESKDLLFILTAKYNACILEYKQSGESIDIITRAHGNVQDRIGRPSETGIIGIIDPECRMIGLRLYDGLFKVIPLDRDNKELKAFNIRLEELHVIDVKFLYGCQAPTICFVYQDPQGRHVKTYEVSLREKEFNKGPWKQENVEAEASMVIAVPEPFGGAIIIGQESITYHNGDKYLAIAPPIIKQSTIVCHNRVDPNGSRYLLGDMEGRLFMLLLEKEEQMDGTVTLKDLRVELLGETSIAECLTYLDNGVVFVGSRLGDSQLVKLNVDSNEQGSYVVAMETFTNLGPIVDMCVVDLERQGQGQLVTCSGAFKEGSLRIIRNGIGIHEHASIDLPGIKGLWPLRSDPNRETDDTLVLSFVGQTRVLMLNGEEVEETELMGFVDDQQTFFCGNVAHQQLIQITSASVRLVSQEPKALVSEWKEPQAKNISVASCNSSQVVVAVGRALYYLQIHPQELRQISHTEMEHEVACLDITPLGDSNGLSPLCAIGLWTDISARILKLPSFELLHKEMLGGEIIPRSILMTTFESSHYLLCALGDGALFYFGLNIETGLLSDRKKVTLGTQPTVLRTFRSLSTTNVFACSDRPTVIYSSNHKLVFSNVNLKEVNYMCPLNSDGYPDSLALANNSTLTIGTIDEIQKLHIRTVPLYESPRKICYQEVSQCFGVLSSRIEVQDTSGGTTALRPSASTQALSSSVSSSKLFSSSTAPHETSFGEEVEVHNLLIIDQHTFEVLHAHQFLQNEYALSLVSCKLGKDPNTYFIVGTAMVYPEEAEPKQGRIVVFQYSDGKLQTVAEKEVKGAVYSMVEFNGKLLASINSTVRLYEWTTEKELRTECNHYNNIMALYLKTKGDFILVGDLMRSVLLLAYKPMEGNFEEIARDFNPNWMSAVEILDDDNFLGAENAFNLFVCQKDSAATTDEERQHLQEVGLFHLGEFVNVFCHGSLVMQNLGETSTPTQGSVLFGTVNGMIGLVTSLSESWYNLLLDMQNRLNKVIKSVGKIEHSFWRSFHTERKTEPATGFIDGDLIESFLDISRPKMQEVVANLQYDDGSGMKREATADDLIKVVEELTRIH

T1 sequence (Q9UKT9 146-168 limits assumed): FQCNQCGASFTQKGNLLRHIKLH
T1 sequence (Q96SW2 whole entry, the tested form may be a part): as the sequence (Q96SW2 whole entry) above
T1 sequence (Q16531 whole entry partner, the tested form may be a part): as the sequence (Q16531 whole entry partner) above
T2 sequence (Q9BU19 whole entry): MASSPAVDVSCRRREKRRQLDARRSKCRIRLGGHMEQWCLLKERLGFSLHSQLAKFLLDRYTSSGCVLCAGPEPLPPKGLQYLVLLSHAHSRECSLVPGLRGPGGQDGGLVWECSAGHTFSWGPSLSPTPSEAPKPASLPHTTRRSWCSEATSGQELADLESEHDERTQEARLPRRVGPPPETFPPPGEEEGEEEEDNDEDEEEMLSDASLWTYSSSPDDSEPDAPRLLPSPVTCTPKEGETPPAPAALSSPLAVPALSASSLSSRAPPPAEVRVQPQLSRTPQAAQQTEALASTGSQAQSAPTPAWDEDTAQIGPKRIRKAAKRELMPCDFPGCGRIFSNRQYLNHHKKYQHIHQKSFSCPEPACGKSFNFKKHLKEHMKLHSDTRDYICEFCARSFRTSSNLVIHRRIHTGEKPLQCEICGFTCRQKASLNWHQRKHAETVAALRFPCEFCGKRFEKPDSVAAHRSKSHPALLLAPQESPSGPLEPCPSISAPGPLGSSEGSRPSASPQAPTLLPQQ
T2 sequence (Q96SW2 whole entry): as the sequence (Q96SW2 whole entry) above
T2 sequence (Q16531 whole entry partner): as the sequence (Q16531 whole entry partner) above
T3 sequence (Q96A37 whole entry): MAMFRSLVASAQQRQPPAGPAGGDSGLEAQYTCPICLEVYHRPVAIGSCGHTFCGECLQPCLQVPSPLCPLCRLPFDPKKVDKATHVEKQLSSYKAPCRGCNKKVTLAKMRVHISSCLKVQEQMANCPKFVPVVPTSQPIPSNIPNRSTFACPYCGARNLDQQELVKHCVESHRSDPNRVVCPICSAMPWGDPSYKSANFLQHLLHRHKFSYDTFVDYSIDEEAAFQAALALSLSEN
T3 sequence (Q96SW2 whole entry): as the sequence (Q96SW2 whole entry) above
T3 sequence (Q16531 whole entry partner): as the sequence (Q16531 whole entry partner) above

SMILES	second C2H2 zinc finger in Aiolos (amino acids 146-169) inducing targeting by the drug [1]	degradation of ZNF692 in protein reporter vector (normalized EGFP:mCherry ratio) (ZNF692 [2])	degradation of zinc-finger-containing region of ZNF692 fused to GFP (ZNF692 [2])	degradation of ZFP91 in protein reporter vector (normalized EGFP:mCherry ratio) (ZFP91 [3])	degradation of zinc-finger-containing region of ZFP91 fused to GFP (ZFP91 [3])	degradation of RNF166 in protein reporter vector (normalized EGFP:mCherry ratio) (RNF166 [4])	degradation of zinc-finger-containing region of RNF166 fused to GFP (RNF166 [4])	ZNF692 protein abundance in the presence of drug (ZNF692 [5])	RNF166 protein abundance in the presence of drug (RNF166 [6])	ZFP91 protein abundance in the presence of drug (ZFP91 [7])
Nc1cccc2c1C(=O)N(C1CCC(=O)NC1=O)C2=O (centres unmarked) [pomalidomide]	both necessary and sufficient to induce targeting	degraded	degraded with varying efficiencies	degraded	degraded with varying efficiencies	degraded	degraded with varying efficiencies			
O=C1CCC(N2C(=O)c3ccccc3C2=O)C(=O)N1 (centres unmarked) [thalidomide]	both necessary and sufficient to induce targeting	degraded	degraded with varying efficiencies	degraded	degraded with varying efficiencies	degraded	degraded with varying efficiencies	significant decrease in abundance	significant decrease in abundance	significant decrease in abundance
